According to patent US8618114B2 (priority 2008, dated 2013):
Structures can show the parent of a compound that is named as a salt.

Legend:
5-HT6 receptor [1] = biological target: T1, 5-HT6 receptor (Homo sapiens (Human), UniProt P50406); assay: functional assay for serotonin 5-HT6 receptor inhibition (serotonin-induced intracellular cAMP, LANCE cAMP kit, HEK 293 cells); assay type: cell-based; settings: HEK 293 cells with expressed 5-HT6 receptor; reduction of serotonin-induced intracellular cAMP
T1 sequence (P50406 whole entry): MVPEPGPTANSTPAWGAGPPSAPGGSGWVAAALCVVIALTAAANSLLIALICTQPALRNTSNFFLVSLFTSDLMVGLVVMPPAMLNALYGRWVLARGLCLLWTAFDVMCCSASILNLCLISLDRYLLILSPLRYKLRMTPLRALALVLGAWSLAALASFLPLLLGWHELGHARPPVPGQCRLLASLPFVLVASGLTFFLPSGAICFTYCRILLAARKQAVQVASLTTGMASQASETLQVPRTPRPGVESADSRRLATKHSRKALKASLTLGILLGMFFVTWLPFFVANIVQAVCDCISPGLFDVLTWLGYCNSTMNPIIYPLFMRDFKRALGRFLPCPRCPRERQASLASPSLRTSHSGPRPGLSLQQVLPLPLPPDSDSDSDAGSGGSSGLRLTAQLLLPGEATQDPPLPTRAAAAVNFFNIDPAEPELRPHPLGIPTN
Description: Determination of antagonistic activity of compounds of the general formula 1 towards 5-HT6 receptors. Compounds of the general formula 1 were tested for their ability to prevent 5-HT6 receptors activation by serotonin. HEK 293 cells (cells of human embryo's kidney) with artificially expressed 5-HT6 receptor, activation of which by serotonin leads to increasing the concentration of intracellular cAMP, were used. The level of intracellular cAMP was determined using reagent kit LANCE cAMP (PerkinElmer) according to the method described by the manufacturer of the kit [http://las.perkinelmer.com/content/Manuals/MAN_LANCEcAMP384KitUser.pdf]. Effectiveness of the compounds was estimated by their ability to reduce the level of intracellular cAMP induced by serotonin. Table 4 presents IC50 values for the compounds of general formula 1 in the setting of functional assay for serotonin 5-HT6 receptor inhibition. The data given testify their moderate or high antagonistic activity.

5-HT6 receptor [2] = biological target: T1, 5-HT6 receptor; assay: competitive radioligand binding ([3H] Lysergic acid diethylamide) to serotonin 5-HT6 receptors, HeLa cell membranes; settings: read-out: IC50, competitive assay of serotonin 5-HT6 receptor inhibition; displacement of 1.5 nM [3H] Lysergic acid diethylamide, 120 min at 37° C.
Description: Determination of activity of the compounds of the general formula 1 in the setting of competitive binding to serotonin 5-HT6 receptors.
Screening of the disclosed compounds for their potential ability to interact with serotonin 5-HT6 receptors was carried out by method of radioligand binding. For this purpose membrane species were prepared from expressing recombinant human 5-HT6 receptors HeLa cells by means of their homogenization in glass homogenizer with subsequent separation of plasmatic membranes from cell nucli, mitochondria's and cell wreckages by differential centrifugation. Determination of tested compounds binding to 5-HT6 receptors was carried out according to the method described in [Monsma F J Jr, Shen Y, Ward R P, Hamblin M W and Sibley D R, Cloning and expression of a novel serotonin receptor with high affinity for tricyclic psychotropic drugs. […] After incubation the samples were filtered in vacuo on glass-microfiber filters G/F (Millipor, USA), filters were washed three times with cold solution of the medium and radioactivity was measured by scintillation counter MicroBeta 340 (PerkinElmer, USA). Nonspecific binding which made up 30% of overall binding was determined by incubation of membrane preparations with radioligand in the presence of 5 μM Serotonin (5-HT). Methiothepin was used as positive control. Binding of the tested compounds to the receptor was determined by their ability to displace the radioligand and expressed in percent of displacement. The percent of displacement was calculated according to the following equation:
[formula] wherein: TA—was overall radioactivity in the presence of radioligand only, CA—was radioactivity in the presence of radioligand and tested compound and NA—was radioactivity in the presence of radioligand and Serotonin (5 μM).

SMILES | IC50 (5-HT6 receptor [1]) [nM] | IC50 (5-HT6 receptor [2]) [nM]
CNc1nn2cccnc2c1S(=O)(=O)c1ccc(F)cc1 [1.2.1(2), 2-methylamino-3-(4-fluorophenylsulfonyl)-pyrazolo[1,5-a]pyrimidine] | 45 | 18
CNc1nn2c(C)c(CCC(=O)N(C)CCN(C)C)c(C)nc2c1S(=O)(=O)c1ccccc1 [1.2.19(2).HCl] | 1680 | 174
CNc1nn2c(N3CCN(C)CC3)cc(C)nc2c1S(=O)(=O)c1ccccc1 [1.2.12(4).HCl] | 173 | 4.19
CSc1nn2c(C)c(Cl)c(C)nc2c1S(=O)(=O)c1ccccc1 [1.1(4)] | 300 | < 10
COc1cc(-c2cccnc2)nc2c(S(=O)(=O)c3ccccc3)c(SC)nn12 [1.1.8(3), 2-methylsulfanyl-7-methoxy-5-(pyridin-3-yl)-3-phenylsulfonyl-pyrazolo[1,5-a]pyrimidine] | < 10 | < 10
CNc1nn2c(C)c(CCC(=O)N(C)CCCN(C)C)c(C)nc2c1S(=O)(=O)c1ccccc1 [1.2.19(3).HCl] | 2280 | 291
CNc1nn2c(C)c(CCC(=O)N3CCN(C)CC3)c(C)nc2c1S(=O)(=O)c1ccccc1 [1.2.19(4).HCl] | 6060 | 306
CNc1nn2cccnc2c1S(=O)(=O)c1cccc(Cl)c1 [1.2.1(4), 2-methylamino-3-(3-chlorophenylsulfonyl)-pyrazolo[1,5-a]pyrimidine] | 24 | 5.01

The remaining lines, values ahead:

IC50 (5-HT6 receptor [1]) [nM] | IC50 (5-HT6 receptor [2]) [nM] | SMILES
996 | 50 | CSc1nn2ccc(C)nc2c1S(=O)(=O)c1ccc(F)cc1 [1.1.2(2), 5-methyl-2-methylsulfanyl-3-(4-fluorophenylsulfonyl)-pyrazolo[1,5-a]pyrimidine]
12 | < 10 | CNc1nn2c(OC)cc(-c3cccnc3)nc2c1S(=O)(=O)c1ccccc1 [1.2.10(3), 2-methylamino-7-methoxy-5-(pyridin-3-yl)-3-phenylsulfonyl-pyrazolo[1,5-a]pyrimidine]
3 | 0.74 | CNc1nn2c(C)ccnc2c1S(=O)(=O)c1ccccc1 [1.2.3(1), 7-methyl-2-methylamino-3-phenylsulfonyl-pyrazolo[1,5-a]pyrimidine]
11.3 | 0.67 | CNc1nn2c(C)c(N)c(C)nc2c1S(=O)(=O)c1ccccc1 [1.2.22(1).HCl]
1550 | 69.9 | CNc1nn2c(NCCN(C)C)cc(C)nc2c1S(=O)(=O)c1ccccc1 [1.2.12(3), 7-(2-dimethylamino)ethylamino-5-methyl-2-methylamino-3-phenylsulfonyl-pyrazolo[1,5-a]pyrimidine]
45 | 0.645 | CNc1nn2c(C)c(CCN)c(C)nc2c1S(=O)(=O)c1ccccc1 [1.2.22(3).HCl]
10 | 0.227 | CNc1nn2c(C)c(CN)c(C)nc2c1S(=O)(=O)c1cccc(Cl)c1 [1.2.22(5).HCl]
1110 | 40 | CSc1nn2c(C)ccnc2c1S(=O)(=O)c1ccccc1 [1.1.3(1), 7-methyl-2-methylsulfanyl-3-phenylsulfonyl-pyrazolo[1,5-a]pyrimidine]
9 | 0.56 | CNc1nn2c(C)c(CN)c(C)nc2c1S(=O)(=O)c1ccccc1 [1.2.22(2).HCl]
> 10000 | 50 | CSc1nn2c(C)c(Oc3ccccc3)c(C)nc2c1S(=O)(=O)c1ccccc1 [1.1(6)]
101 | 0.34 | CNc1nn2c(COC)cc(C)nc2c1S(=O)(=O)c1ccccc1 [1.2.4(1), 5-methyl-2-methylamino-7-(methoxymethyl)-3-phenylsulfonyl-pyrazolo[1,5-a]pyrimidine]
